Our source for the EC50 values is patent publication US20230020329A1, “Annelated 9-hydroxy-1,8-dioxo-1,3,4,8-tetrahydro-2H-pyrido[1,2-a]pyrazine-7-carboxamides as HIV integrase inhibitors, methods of preparation and application thereof” (priority 2019, published 2023).

The term pEC50 denotes the EC50 on a negative log10 scale, so that one unit is a factor of ten.

pEC50: −log10 of the molar value.

The test system of this assay is HIV-1 (IIIB strain). In words: Anti-HIV cytoprotection assay (XTT), HIV-1 IIIB in CEM-SS cells. Format: cell-based. Particulars: Human immunodeficiency virus 1, IIIB, CEM-SS, CEM-SS cell line; read-out: Inhibitory activity (EC50) against HIV-1 (IIIB strain). From the text:
a) Inhibitory Activity of the Lymphocytropic Virus Strain HIV-1 (IIIB) in the CEM-SS Cell Line.
The evaluation was done by ImQuest BioSciences, Inc. (Frederick, Md., USA). CEM-SS cells [Foley G. E. et al. Continuous Culture of Human Lymphoblasts from Peripheral Blood of a Child with Acute Leukemia. Cancer 1965, 18, 522-529] obtained through the NIH AIDS Research and Reference Reagent Program (Manassas, Va., USA) were passaged in T-75 flasks prior to use cell culture medium consisting of RPMI1640 medium (Lonza; Walkersville, Md., USA) supplemented with 10% heat inactivated fetal bovine serum (Gibco; Grand Island, N.Y.), […] L-glutamine (Lonza), […] penicillin (Lonza) and […] streptomycin (Lonza) for antiviral analysis. The CEM-SS cells were kept in RPMI 140 medium supplemented with 10% heat inactivated bovine fetal serum, 2 mM glutamine, 100 U/ml penicillin, and 100 μg/ml streptomycin.
A lymphocytropic HIV-1 IIIB strain [Popovic, M. et al. Detection, isolation, and continuous production of cytopathic retroviruses (HTLV-III) from patients with AIDS and pre-AIDS. Science. 1984, 224 (4648), 497-500] was chosen for a virus to be analyzed. The virus was obtained through the NIH AIDS Research and Reference Reagents Program and grown in CEM-SS cells to produce a stock virus pool. A pre-titrated aliquot of the virus was removed from the freezer (−80° C.) and allowed to slowly thaw to room temperature in a biological safety cabinet. The virus was diluted in a tissue culture medium so that the amount of virus added in 50 μl per well was sufficient to kill 85 to 95% of the cells 6 days after infection. HIV-1 IIIB was grown and titrated in CEM-SS cells. The inhibitory effect of […] was evaluated in CEM-SS cells as described earlier [Nara, P. L. at al. Simple, rapid, quantitative, syncytium-forming microassay for the detection of human immunodeficiency virus neutralizing antibody. AIDS Res. Hum. Retroviruses 1987, 3, 283-302.] in microtiter plate anti-HIV assays to quantitatively assess the ability of a compound to inhibit HIV-induced cell death. Quantification was carried out using 2,3-bis-(2-methoxy-4-nitro-5-[…])-(2H)-tetrazolium-5-carboxanilide (XTT) tetrazolium, which is metabolized to a stained formazan product through viable […] The compounds given in Table 1 were dissolved at 10 μM in DMSO and stored at −20° C.
Test materials were evaluated using antiviral assays in triplicate in concentrations of 30 and 10 nM. The compounds shown in table 1 were dissolved at 10 μM in DMSO and stored at −20° C. […] Sixty nanomolar concentrations of each compound (2 times that of the test concentration in the well) were prepared by diluting 10 μM DMSO stock 1:100 in cell culture medium (10 μl of compound added to 990 μl of the medium) followed by 1:10 dilution (10 μl of the compound was added to 90 μl of the medium), then 6 μl was added to 994 μl of the medium; […] μl was added to a 96-well microtiter plate in triplicate to ensure efficacy and one colorimetric well. Twenty nanomolar concentrations of each compound (twice as much as the test concentration in the well) were prepared by diluting 10 μM DMSO with the original 1:100 in cell culture medium (10 μl of the compound added to 990 μl of the medium) followed by diluting […] (10 μl of the compound was added to 900 μl of the medium), then 20 μl was added to 980 μl of the medium; 100 μl was added to a 96-well microtiter plate in triplicate to ensure efficacy and one colorimetric well.
Azidothymidine (AZT) was purchased from Sigma Aldrich (USA) and evaluated as a positive control compound in an antiviral assay using a six-concentration reaction curve on each assay plate.
Test compounds were initially evaluated for HIV-1 IIIB strain in CEM-SS cells at test concentrations of 30 and 10 nM. […]
For the molecule `Cc1ccc(CNC(=O)c2cn3c(c(O)c2=O)C(=O)N2[C@@H](C)CO[C@@H]2C3)o1` [Compound 1.1.3, (3S,11aR)-6-hydroxy-3-methyl-N-[(5-methyl-2-furyl)methyl]-5,7-dioxo-2,3,5,7,11,11a-hexahydro[1,3]oxazolo[3,2-a]pyrido[1,2-d]pyrazine-8-carboxamide], the pEC50 is 8.00 to 8.70.
In the case of `Cc1n[nH]c(C)c1CNC(=O)c1cn2c(c(O)c1=O)C(=O)N1[C@@H](C)CO[C@@H]1C2` [Compound 1.1.4, (3S,11aR)-6-hydroxy-N-[(3,5-dimethyl-1H-pyrazol-4-yl)methyl]-3-methyl-5,7-dioxo-2,3,5,7,11,11a-hexahydro[1,3]oxazolo[3,2-a]pyrido[1,2-d]pyrazine-8-carboxamide], the negative logarithm of the EC50 (pEC50) is approximately 8.10.
In the case of `Cc1nn(C)c(C)c1CNC(=O)c1cn2c(c(O)c1=O)C(=O)N1[C@@H](C)CO[C@@H]1C2` [Compound 1.1.5, (3S,11aR)-6-hydroxy-3-methyl-N-[(1,3,5-trimethyl-1H-pyrazol-4-yl)methyl]-5,7-dioxo-2,3,5,7,11,11a-hexahydro[1,3]oxazolo[3,2-a]pyrido[1,2-d]pyrazine-8-carboxamide], the pEC50 is 7.52 to 8.00.
The value for `CCn1nc(C)c(CNC(=O)c2cn3c(c(O)c2=O)C(=O)N2[C@@H](C)CO[C@@H]2C3)c1C` [Compound 1.1.6, (3S,11aR)-6-hydroxy-N-[(1-ethyl-3,5-dimethyl-1H-pyrazol-4-yl)methyl]3-methyl-5,7-dioxo-2,3,5,7,11,11a-hexahydro[1,3]oxazolo[3,2-a]pyrido[1,2-d]pyrazine-8-carboxamide] was 7.52 to 8.00.
On to `C[C@H]1CO[C@@H]2Cn3cc(C(=O)NCc4nccs4)c(=O)c(O)c3C(=O)N12` [Compound 1.1.8, (3S,11aR)-6-hydroxy-3-methyl-N-(1,3-thiazol-2-ylmethyl)-5,7-dioxo-2,3,5,7,11,11a-hexahydro[1,3]oxazolo[3,2-a]pyrido[1,2-d]pyrazine-8-carboxamide], for which the pEC50 is 8.00 to 8.70.
Take `Cc1coc(CNC(=O)c2cn3c(c(O)c2=O)C(=O)N2[C@@H](C)CO[C@@H]2C3)n1` [Compound 1.1.9, (3S,11aR)-6-hydroxy-3-methyl-N-[(4-methyl-1,3-oxazol-2-yl)methyl]-5,7-dioxo-2,3,5,7,11,11a-hexahydro[1,3]oxazolo[3,2-a]pyrido[1,2-d]pyrazine-8-carboxamide]: the pEC50 was less than 7.52.
Turning to `Cc1nnsc1CNC(=O)c1cn2c(c(O)c1=O)C(=O)N1[C@@H](C)CO[C@@H]1C2` [Compound 1.1.11, (3S,11aR)-6-hydroxy-3-methyl-N-[(4-methyl-1,2,3-thiadiazol-5-yl)methyl]-5,7-dioxo-2,3,5,7,11,11a-hexahydro[1,3]oxazolo[3,2-a]pyrido[1,2-d]pyrazine-8-carboxamide], the pEC50 was less than 7.52.
As to `Cc1nonc1CNC(=O)c1cn2c(c(O)c1=O)C(=O)N1[C@@H](C)CO[C@@H]1C2` [Compound 1.1.12, (3S,11aR)-6-hydroxy-3-methyl-N-[(4-methyl-1,2,5-oxadiazol-3-yl)methyl]-5,7-dioxo-2,3,5,7,11,11a-hexahydro[1,3]oxazolo[3,2-a]pyrido[1,2-d]pyrazine-8-carboxamide], the pEC50 was 7.52 to 8.00.
The value for `C[C@H]1CO[C@@H]2Cn3cc(C(=O)NCc4nncn4C)c(=O)c(O)c3C(=O)N12` [Compound 1.1.14, (3S,11aR)-6-hydroxy-3-methyl-N-[(4-methyl-4H-1,2,4-triazol-3-yl)methyl]-5,7-dioxo-2,3,5,7,11,11a-hexahydro[1,3]oxazolo[3,2-a]pyrido[1,2-d]pyrazine-8-carboxamide] was approximately 8.00; that for `C[C@H]1CO[C@@H]2Cn3cc(C(=O)NCc4ccccn4)c(=O)c(O)c3C(=O)N12` [Compound 1.1.15, (3S,11aR)-6-hydroxy-3-methyl-N-(pyridyl-2-ylmethyl)-5,7-dioxo-2,3,5,7,11,11a-hexahydro[1,3]oxazolo[3,2-a]pyrido[1,2-d]pyrazine-8-carboxamide] was 7.52 to 8.00.
Turning to `C[C@H]1CO[C@@H]2Cn3cc(C(=O)NCc4ccc(Cl)nc4)c(=O)c(O)c3C(=O)N12` [Compound 1.1.18, (3S,11aR)-6-hydroxy-N-[(6-chloropyridin-3-yl)methyl]-3-methyl-5,7-dioxo-2,3,5,7,11,11a-hexahydro[1,3]oxazolo[3,2-a]pyrido[1,2-d]pyrazine-8-carboxamide], the pEC50 was 7.52 to 8.00.
For `C[C@H]1CO[C@@H]2Cn3cc(C(=O)NCc4c(F)ccnc4F)c(=O)c(O)c3C(=O)N12` [Compound 1.1.21, (3S,11aR)-6-hydroxy-N-[(2,4-difluoropyridin-3-yl)methyl]-3-methyl-5,7-dioxo-2,3,5,7,11,11a-hexahydro[1,3]oxazolo[3,2-a]pyrido[1,2-d]pyrazine-8-carboxamide], the pEC50 is less than 7.52.
To `Cc1nccc(CNC(=O)c2cn3c(c(O)c2=O)C(=O)N2[C@@H](C)CO[C@@H]2C3)n1` [Compound 1.1.26, (3S,11aR)-6-hydroxy-3-methyl-N-[(2-methylpyrimidin-4-yl)methyl]-5,7-dioxo-2,3,5,7,11,11a-hexahydro[1,3]oxazolo[3,2-a]pyrido[1,2-d]pyrazine-8-carboxamide] belongs 7.52 to 8.00; to `C[C@H]1CO[C@@H]2Cn3cc(C(=O)NCc4cnccn4)c(=O)c(O)c3C(=O)N12` [Compound 1.1.27, (3S,11aR)-6-hydroxy-3-methyl-N-(pyrazin-2-ylmethyl)-5,7-dioxo-2,3,5,7,11,11a-hexahydro[1,3]oxazolo[3,2-a]pyrido[1,2-d]pyrazine-8-carboxamide], less than 7.52; to `C[C@H]1CO[C@@H]2Cn3cc(C(=O)NCc4cn5cc(Cl)sc5n4)c(=O)c(O)c3C(=O)N12` [Compound 1.1.28, (3S,11aR)-6-hydroxy-3-methyl-N-[(2-chloroimidazo[2,1-b][1,3]thiazol-6-yl)methyl]-5,7-dioxo-2,3,5,7,11,11a-hexahydro[1,3]oxazolo[3,2-a]pyrido[1,2-d]pyrazine-8-carboxamide], less than 7.52.
Turning to `C[C@H]1CO[C@@H]2Cn3cc(C(=O)NCc4cn5ncsc5n4)c(=O)c(O)c3C(=O)N12` [Compound 1.1.29, (3S,11aR)-6-hydroxy-N-(imidazo[2,1-b][1,3,4]thiadiazol-6-ylmethyl)-3-methyl-5,7-dioxo-2,3,5,7,11,11a-hexahydro[1,3]oxazolo[3,2-a]pyrido[1,2-d]pyrazine-8-carboxamide], the pEC50 is less than 7.52.
For `Cc1nn2cc(CNC(=O)c3cn4c(c(O)c3=O)C(=O)N3[C@@H](C)CO[C@@H]3C4)nc2s1` [Compound 1.1.30, (3S,11aR)-6-hydroxy-3-methyl-N-[(2-methylimidazo[2,1-b][1,3,4]thiadiazol-6-yl)methyl]-5,7-dioxo-2,3,5,7,11,11a-hexahydro[1,3]oxazolo[3,2-a]pyrido[1,2-d]pyrazine-8-carboxamide], the pEC50 is less than 7.52.
As to `C[C@H]1CO[C@@H]2Cn3cc(C(=O)NCc4ccc5sccc5c4)c(=O)c(O)c3C(=O)N12` [Compound 1.1.31, (3S,11aR)-N-(1-benzothien-5-ylmethyl)-6-hydroxy-3-methyl-5,7-dioxo-2,3,5,7,11,11a-hexahydro[1,3]oxazolo[3,2-a]pyrido[1,2-d]pyrazine-8-carboxamide], the pEC50 is 8.00 to 8.70.
To `C[C@H]1CO[C@@H]2Cn3cc(C(=O)NCc4cc5ccccc5o4)c(=O)c(O)c3C(=O)N12` [Compound 1.1.32, (3S,11aR)-N-(1-benzofuran-2-ylmethyl)-6-hydroxy-3-methyl-5,7-dioxo-2,3,5,7,11,11a-hexahydro[1,3]oxazolo[3,2-a]pyrido[1,2-d]pyrazine-8-carboxamide] belongs 8.00 to 8.70.
